We go through nine molecules from patent US4900538A (Suntory Limited, priority 1982, dated 1990).

Data set [1] has as its system Escherichia coli K 12 envA uvr B (λ), GY 5027. The data set is classed as cell-based. The following applies: for Inactivation of mutagenicity (phage induction activity) of adriamycin, dose-response: absence of S9 mix, molar ratios to adriamycin 1:1 to 30:1 (FIG. 12). From the text: Inductest III (P. Morean, A. Bailone and R. Devoret: Proc. Natl. Acad. Sci. U.S.A., Vol. 73, No. 10, 3700-3704, '76). This method is a test for mutagenicity using prophage λ induction as an index. The strains used in this method were Escherichia coli K 12 envA uvr B (λ), GY 5027 and as λ indicator GY 4015 (Amp R).
This method uses phage induction activity as an index.
Potassium sulfite was used as a sulfite compound and potassium pyrosulfite which produces 2 equivalents of hydrogensulfite ion when dissolved in water was used as acid sulfite.
Dithionite produces two equivalents of hydrogensulfite ions when dissolved in water.
The molar ratio of sodium dithionite to daunomycin was 15:1. In FIGS. 13 and 14 the symbol indicates daunomycin alone and the symbol indicates daunomycin plus sodium dithionite.
Sodium sulfite was used as a sulfite at a molar ratio of sodium sulfite to daunomycin of 30:1.

Data set [2] concerns Salmonella typhimurium TA 98. Put plainly: Ames test (Preincubation Method): mutagenicity and its inactivation by sulfite compounds. The note with it: FIGS. 1, 6 and 7 (also FIGS. 3 and 4, Inductest III). How it is done: This method is based on the Ames test (B. N. Ames, J. Mac Gann and E. Yamasaki: Mutation Research, Vol. 31, 347-364, '75). […] The strain used in this method was histidine requisite Salmonella typhimurium TA 100 and TA 98 (hereinafter referred to as St TA 100 and St TA 98).
At the same time, predetermined amounts of sodium sulfite, sodium hydrogensulfite (sodium acid sulfite), sodium pyrosulfite, sodium dithionite or sulphurous anhydride were dissolved in aseptic distilled water.
To 100 μl of each of the samples prepared in the above (2), 500 μl of 100 mM sodium phosphate buffer (pH 7.4) and 100 μl of a culture of St TA 100 or St TA 98 were added. Each mixture was shaken for 20 minutes at 37° C., added to 2.5 ml of a soft agar solution and spread on 0.1% glucose agar plate which had been supplemented with 0.1 μM per plate of histidine in order to create several divisions. After incubation at 37° C. for 48 hours, the number of colonies on the plate was counted as revertants. This method uses nutrient requisiteness of the above strains as an index.
For orientation: The Ames test uses bacterial strains that need an amino acid and regain growth without it when mutated back.

The subject of data set [3] is strains used (Salmonella typhimurium, Escherichia coli). In words: Growth / survival of the strains used in the mutagenicity tests. The note with it: explains apparent reduction of mutagenicity at high levels. The data set is classed as cell-based.
A further data set relates to DNA. The note with it: cited from earlier work.
In another data set the test system is male CD-1 (ICR) mice. In words: Acute toxicity in mice (survival days). The method, then: Male CD-1 (ICR) mice (12 weeks old) were used as test animals. The temperature in the animal room was maintained at 23° C. (±3° C.) and relative humidity was kept at 30-70%. Artificial lighting was carried out by illumination and darkening at successive intervals of 12 hours.
The test substances were dissolved in distilled water and intraperitoneally administered to the animals at a dose of 10 ml/kg.
The above t-test was carried out as follows.

For a further data set, the system named is L1210 cells. Put plainly: In vivo carcinostatic activity against transplanted L1210 cells (ILS, survivors). The note with it: i.p.
For data set [4] the following is noted: Japanese Patent application No. 144272/81; cited from earlier work.

Values joined by “and” are separate entries in the source; they are usually repeats but may differ in a detail not shown here. Equal entries are not always repeated. Where two headings read alike, the source gives them in different places.

Protocol for L1210 cells: Male BDF1 mice (57BL/6XDBA/2) weighing 19-20 g were used in this experiment. Feed (CA-1, Nihon Kurea Kabushiki Kaisha, Meguro-ku, Tokyo, Japan) and water were freely taken. 1×10^5 L 1210 cells were intraperitoneally transplanted to a mouse in each group of 6 mice. Test substances were intraperitoneally administered to mice 24 hours after i.p. injection of L1210 cells and thereafter one time each day for 5 days. Survival days of all of the mice were recorded and carcinostatic effects of the test compounds were measured by using index of life spread (ILS %) to the control group.

With `O=S([O-])[O-].[Na+].[Na+]` [sodium sulfite], the “Inactivation of mutagenicity of daunomycin (phage induction)” value in data set [1] (molar ratio sodium sulfite to daunomycin 30:1, absence and presence of S9 mix (FIGS. 15 and 16)) was “completely inactivated”.
As to `COc1cccc2c1C(=O)c1c(O)c3c(c(O)c1C2=O)C[C@@](O)(C(C)=O)C[C@@H]3O[C@H]1C[C@H](N)[C@H](O)[C@H](C)O1` [daunomycin], in data set [2], the “Apparent change of mutagenicity at high levels of the antibiotic per se” value was “appear to be reduced at high levels”. Also, the Cellular toxicity entry in data set [3] is on record as “have cellular toxicity”. For the same molecule, the “Base pairs of DNA reacting per one molecule (intercalation)” value with DNA is 3 base pairs.
Turning to `O=S([O-])S(=O)[O-].[Na+].[Na+]` [sodium dithionite], the “Inactivation of mutagenicity of daunomycin (phage induction)” value in data set [1] (molar ratio dithionite to daunomycin 15:1, independently of S9 mix (FIGS. 13 and 14)) is on record as “completely inactivated”.
Consider `O=S([O-])O.[Na+]` [sodium hydrogensulfite], for which, in the data set with male CD-1 (ICR) mice (experiment (1): adriamycin 20 mg/kg for 3 days, sodium hydrogensulfite 53.8 mg/kg (FIG. 10)), the “Reduction of toxicity of adriamycin (t-test of survival days)” value is given as “significantly reduced toxicity at a confidence level of 90%”.
As to `O=S(O)O` [hydrogensulfite ion], the “Hydrogensulfite ion in molar concentration necessary for complete inactivation of mutagenicity of adriamycin” value in data set [1] (absence of S9 mix (FIG. 5)) is given as “at least ten”.
Regarding `O=S([O-])[O-].[K+].[K+]` [sulfite, potassium sulfite], the “Inactivation of mutagenicity (phage induction activity) of adriamycin, dose-response” value in data set [1] is on record as “the more remarkably the mutagenicity of adriamycin was inactivated”.
`O=S([O-])S(=O)(=O)[O-].[K+].[K+]` [acid sulfite, potassium pyrosulfite]: in data set [1], the “Inactivation of mutagenicity (phage induction activity) of adriamycin, dose-response” value is on record as “the more remarkably the mutagenicity of adriamycin was inactivated”.
For the molecule `COc1cccc2c1C(=O)c1c(O)c3c(c(O)c1C2=O)C[C@@](O)(C(=O)CO)C[C@@H]3O[C@H]1C[C@H](N)[C@H](O)[C@H](C)O1` [adriamycin], the “Apparent change of mutagenicity at high levels of the antibiotic per se” value in data set [2] was “appear to be reduced at high levels”. Besides, the “Survival days, individual mouse” value in the data set with male CD-1 (ICR) mice (experiment (1): adriamycin 20 mg/kg i.p. daily for 3 days, no hydrogensulfite, mice No. 1-12 in order) is 0 days (8×) and 1 days (4×); with male CD-1 (ICR) mice (experiment (2): adriamycin alone 20 mg/kg i.p., mice No. 1-11 in order, listed as ADM), 14 days and 7 days and 6 days and 5 days and 4 days. Also, the “Survival days, mean (x)” value with male CD-1 (ICR) mice (experiment (1): adriamycin 20 mg/kg i.p. daily for 3 days, no hydrogensulfite, n=12, s 0.5778) is on record as 0.3333 days; in the data set on male CD-1 (ICR) mice (experiment (2): adriamycin alone 20 mg/kg i.p., n=11, s 2.747), 7.545 days. Also, the “Survivors (on Day 60)” value in the data set on L1210 cells (adriamycin 1 mg/kg/day × 5, sodium hydrogensulfite 0) was 1 and 1/6; in the data set on L1210 cells (adriamycin 3 mg/kg/day × 5, sodium hydrogensulfite 0) it was “zero and 0/6”. Further, the “Base pairs of DNA reacting per one molecule (intercalation)” value with DNA is 3 base pairs.
Regarding `O=S(O)O` [sulfite ion], the “Inactivation of mutagenicities of coffee, tobacco tar and spirits” value in data set [4] was “inactivates mutagenicities”.
